# From patent US20220142955A1, “METHODS OF TREATING ORGANIC ACIDEMIAS” (HemoShear Therapeutics, Inc., priority 2019, published 2022)
# Like-named read-outs stand apart in the source and are kept apart here.
# Tests used:
# Type in all cases: cell-based, human
# [1] = test system: MMA primary hepatocytes; test: Static cell culture, low/high propiogenic media, MMA primary hepatocytes; conditions: MMA pHeps; for EC50 / EC90: Homo sapiens, Hepatocyte
# Method: (§1) Unlike the HemoShear Technology, this assay is carried out without constant perfusion, utilizing cell culture media that was customized to mimic plasma levels of propiogenic sources (amino acids and ketoacids) in PA and MMA patients during periods of relative metabolic stability (low propiogenic media) and acute metabolic crisis (high propiogenic media). PA and MMA pHeps, in static cell culture, were treated with Compound 5 (concentrations ranging from 0.1 μM to 100 μM) for 30 minutes in low propiogenic media, followed by either a continuation of low propiogenic media or a switch to the high propiogenic media for 1 hour. The media used during the 1-hour incubation contained propiogenic SIL amino acids and ketoacids which are metabolized into labeled P-CoA and M-CoA in the cells. The SIL amino acids and ketoacids were a mix of ^13C and MeD8 labelling, but their catabolism produced a SIL P-CoA (denoted as ^13C-P-CoA for simplicity) with the same mass, independent of the type of SIL (also true for ^13C-M-CoA).
# [2] = test system: MMA primary hepatocytes; test: HemoShear Technology, MMA primary hepatocytes (Examples 10, 11); conditions: for EC50 / EC90: Homo sapiens, Hepatocyte
# [3] = test system: normal primary hepatocytes; test: HemoShear Technology, normal primary hepatocytes (Example 11); conditions: Normal pHeps
# [4] = test system: PA primary hepatocytes; test: Static cell culture, low/high propiogenic media, PA primary hepatocytes; conditions: for EC50 / EC90: Homo sapiens, Hepatocyte
# Method: as §1
# [5] = high propiogenic, static culture
# [6] = low propiogenic, static culture
# [7] = MMA pHeps, HemoShear, average ± SD
# [8] = PA pHeps, high propiogenic, static culture
# [9] = PA pHeps, low propiogenic, static culture
structure (smiles),measurement,setting,value
"CCC(C)(C)C(=O)O [Compound 5, 2,2-dimethybutanoic acid]",EC50,"[1]; high propiogenic media, static, read-out: 12C-Methylmalonyl-CoA (13C-M-CoA) EC50",2.7 ± 1.6 µM
same,EC90,"[1]; high propiogenic media, static, read-out: 12C-Methylmalonyl-CoA (13C-M-CoA) EC90",21.2 ± 2 µM
same,EC50,"[1]; high propiogenic media, static, read-out: 13C-Methymalonic acid EC50",1.1 ± 0.9 µM
same,EC90,"[1]; high propiogenic media, static, read-out: 13C-Methymalonic acid EC90",4.6 ± 3 µM
same,EC50,"[1]; high propiogenic media, static, read-out: 13C-Propionyl-CoA (13C-P-CoA) EC50",1.6 ± 0.8 µM
same,EC90,"[1]; high propiogenic media, static, read-out: 13C-Propionyl-CoA (13C-P-CoA) EC90",48.2 ± 47.5 µM
same,EC50,"[1]; high propiogenic, static culture, read-out: 12C-Acetyl-CoA EC50",1.4 ± 1.4 µM
same,EC90,"[1]; high propiogenic, static culture, read-out: 12C-Acetyl-CoA EC90",6.4 ± 7.1 µM
same,EC50,"[1]; high propiogenic, static culture, read-out: CoASH EC50",13.1 ± 14.8 µM
same,EC90,"[1]; high propiogenic, static culture, read-out: CoASH EC90",65.6 ± 81.2 µM
same,EC50,"[1]; high propiogenic, static culture, read-out: Compound 5-CoA (formation) EC50",5.4 ± 2.8 µM
same,EC90,"[1]; high propiogenic, static culture, read-out: Compound 5-CoA (formation) EC90",80.1 ± 57 µM
same,EC50,"[1]; low propiogenic media, static, read-out: 12C-Methylmalonyl-CoA (13C-M-CoA) EC50",2.9 ± 1.6 µM
same,EC90,"[1]; low propiogenic media, static, read-out: 12C-Methylmalonyl-CoA (13C-M-CoA) EC90",30.9 ± 16.2 µM
same,EC50,"[1]; low propiogenic media, static, read-out: 13C-Methymalonic acid EC50",1.2 ± 1.3 µM
same,EC90,"[1]; low propiogenic media, static, read-out: 13C-Methymalonic acid EC90",5.2 ± 3.3 µM
same,EC50,"[1]; low propiogenic media, static, read-out: 13C-Propionyl-CoA (13C-P-CoA) EC50",1.3 ± 0.6 µM
same,EC90,"[1]; low propiogenic media, static, read-out: 13C-Propionyl-CoA (13C-P-CoA) EC90",15.7 ± 18 µM
same,EC50,"[1]; low propiogenic, static culture, read-out: 12C-Acetyl-CoA EC50",2.5 ± 2.6 µM
same,EC90,"[1]; low propiogenic, static culture, read-out: 12C-Acetyl-CoA EC90",28.4 ± 52 µM
same,EC50,"[1]; low propiogenic, static culture, read-out: CoASH EC50",2.3 ± 1.6 µM
same,EC90,"[1]; low propiogenic, static culture, read-out: CoASH EC90",14.2 ± 13.5 µM
same,EC50,"[1]; low propiogenic, static culture, read-out: Compound 5-CoA (formation) EC50",2 ± 0.7 µM
same,EC90,"[1]; low propiogenic, static culture, read-out: Compound 5-CoA (formation) EC90",18 ± 15.7 µM
same,12C-Methylmalonyl-CoA (13C-M-CoA) % change at 30 μM,"[1]; high propiogenic media, static",−73±5.8%
same,13C-Methymalonic acid % change at 30 μM,"[1]; high propiogenic media, static",−91 ± 4%
same,13C-Propionyl-CoA (13C-P-CoA) % change at 30 μM,"[1]; high propiogenic media, static",−75.9±7.3%
same,12C-Acetyl-CoA Percent change (30 μM),[1]; [5],−14.6 ± 12.6%
same,CoASH Percent change (30 μM),[1]; [5],−28.7 ± 7.3%
same,12C-Methylmalonyl-CoA (13C-M-CoA) % change at 30 μM,"[1]; low propiogenic media, static",−76.5±13.2%
same,13C-Methymalonic acid % change at 30 μM,"[1]; low propiogenic media, static",−83.2 ± 5%
same,13C-Propionyl-CoA (13C-P-CoA) % change at 30 μM,"[1]; low propiogenic media, static",−77.6±9.8%
same,12C-Acetyl-CoA Percent change (30 μM),[1]; [6],−35.5 ± 18.1%
same,CoASH Percent change (30 μM),[1]; [6],−47.7 ± 13.4%
same,EC50,"[2]; MMA donor 1, representative data (FIG. 7A), read-out: P-CoA reduction EC50",3.9 µM
same,EC50,"[2]; MMA donor 1, representative data (FIG. 7B), read-out: M-CoA reduction EC50",3.25 µM
same,EC50,"[2]; MMA donor 1, representative data (FIG. 7E), read-out: MCA reduction EC50",1.66 µM
same,EC50,"[2]; MMA pHeps, HemoShear, average ± SD, read-out: 2-Methylcitric acid (2MC) EC50",0.8 ± 0.5 µM
same,EC90,"[2]; MMA pHeps, HemoShear, average ± SD, read-out: 2-Methylcitric acid (2MC) EC90",7.5 ± 6.4 µM
same,EC50,"[2]; MMA pHeps, HemoShear, average ± SD, read-out: 12C-Acetyl-Camitine (C2) EC50",4.3 ± 2.2 µM
same,EC90,"[2]; MMA pHeps, HemoShear, average ± SD, read-out: 12C-Acetyl-Camitine (C2) EC90",31.3 ± 26.9 µM
same,EC50,"[2]; MMA pHeps, HemoShear, average ± SD, read-out: 12C-Methylmalonyl-CoA (M-CoA) EC50",2 ± 1.2 µM
same,EC90,"[2]; MMA pHeps, HemoShear, average ± SD, read-out: 12C-Methylmalonyl-CoA (M-CoA) EC90",12.6 ± 12.9 µM
same,EC50,"[2]; MMA pHeps, HemoShear, average ± SD, read-out: 12C-Propionyl-Carnitine (C3) EC50",1.4 ± 0.5 µM
same,EC90,"[2]; MMA pHeps, HemoShear, average ± SD, read-out: 12C-Propionyl-Carnitine (C3) EC90",18.1 ± 16.2 µM
same,EC50,"[2]; MMA pHeps, HemoShear, average ± SD, read-out: 12C-Propionyl-CoA (P-CoA) EC50",2.1 ± 1.5 µM
same,EC90,"[2]; MMA pHeps, HemoShear, average ± SD, read-out: 12C-Propionyl-CoA (P-CoA) EC90",36.1 ± 30.1 µM
same,EC50,"[2]; MMA pHeps, HemoShear, read-out: CoASH EC50",14.1 ± 8.4 µM
same,EC90,"[2]; MMA pHeps, HemoShear, read-out: CoASH EC90",23.8 ± 20.2 µM
same,EC50,"[2]; MMA pHeps, HemoShear, read-out: Compound 5-CoA (formation) EC50",3.5 ± 1.7 µM
same,EC90,"[2]; MMA pHeps, HemoShear, read-out: Compound 5-CoA (formation) EC90",52.4 ± 45.6 µM
same,12C-Acetyl-CoA Percent change at 30 μM,"[2]; MMA pHeps, HemoShear",13.5 ± 24.9%
same,CoASH Percent change at 30 μM,"[2]; MMA pHeps, HemoShear",−22.3 ± 22.3%
same,average reduction in the C3/C2 ratio,"[2]; MMA pHeps, HemoShear, at 30 μM",−2.2±0.2 log 2 fold change
same,2-Methylcitric acid (2MC) % change at 30 μM,[2]; [7],−66.7±14.9%
same,12C-Acetyl-Camitine (C2) % change at 30 μM,[2]; [7],44.6 ± 26.8%
same,12C-Methylmalonyl-CoA (M-CoA) % change at 30 μM,[2]; [7],−55±6.6%
same,12C-Propionyl-Carnitine (C3) % change at 30 μM,[2]; [7],−65.9±10.7%
same,12C-Propionyl-CoA (P-CoA) % change at 30 μM,[2]; [7],−74.2±11.6%
same,EC50,"[3]; Homo sapiens, Hepatocyte, read-out: Compound 5-CoA (formation) EC50",8.3 ± 8 µM
same,EC90,"[3]; Homo sapiens, Hepatocyte, read-out: Compound 5-CoA (formation) EC90",26.1 ± 3.1 µM
same,12C-Acetyl-CoA Percent change at 30 μM,[3],20 ± 2.9%
same,CoASH Percent change at 30 μM,[3],−35.2 ± 3%
same,EC50,"[4]; PA pHeps, high propiogenic media, static, read-out: 13C-Propionyl-CoA (13C-P-CoA) EC50",1.7 ± 1 µM
same,EC90,"[4]; PA pHeps, high propiogenic media, static, read-out: 13C-Propionyl-CoA (13C-P-CoA) EC90",11.6 ± 7.4 µM
same,EC50,"[4]; PA pHeps, high propiogenic, static culture, read-out: 12C-Acetyl-CoA EC50",0.7 ± 0.5 µM
same,EC90,"[4]; PA pHeps, high propiogenic, static culture, read-out: 12C-Acetyl-CoA EC90",1.9 ± 1.3 µM
same,EC50,"[4]; PA pHeps, high propiogenic, static culture, read-out: CoASH EC50",2.1 ± 1.6 µM
same,EC90,"[4]; PA pHeps, high propiogenic, static culture, read-out: CoASH EC90",11.1 ± 13 µM
same,EC50,"[4]; PA pHeps, high propiogenic, static culture, read-out: Compound 5-CoA (formation) EC50",2.6 ± 1.6 µM
same,EC90,"[4]; PA pHeps, high propiogenic, static culture, read-out: Compound 5-CoA (formation) EC90",42 ± 45.8 µM
same,EC50,"[4]; PA pHeps, low propiogenic media, static, read-out: 13C-Propionyl-CoA (13C-P-CoA) EC50",2 ± 1.8 µM
same,EC90,"[4]; PA pHeps, low propiogenic media, static, read-out: 13C-Propionyl-CoA (13C-P-CoA) EC90",6.9 ± 5.4 µM
same,EC50,"[4]; PA pHeps, low propiogenic, static culture, read-out: 12C-Acetyl-CoA EC50",0.4 ± 0.2 µM
same,EC90,"[4]; PA pHeps, low propiogenic, static culture, read-out: 12C-Acetyl-CoA EC90",1.6 ± 1.3 µM
same,EC50,"[4]; PA pHeps, low propiogenic, static culture, read-out: CoASH EC50",0.9 ± 0.3 µM
same,EC90,"[4]; PA pHeps, low propiogenic, static culture, read-out: CoASH EC90",9.1 ± 5.8 µM
same,EC50,"[4]; PA pHeps, low propiogenic, static culture, read-out: Compound 5-CoA (formation) EC50",1.4 ± 0.6 µM
same,EC90,"[4]; PA pHeps, low propiogenic, static culture, read-out: Compound 5-CoA (formation) EC90",15.3 ± 11.3 µM
same,EC90,"[4]; static cell culture, PA and MMA pHeps, low and high propiogenic media together, read-out: average EC90 value across all biomarkers",11 ± 9.6 µM
same,13C-Propionyl-CoA (13C-P-CoA) % change at 30 μM,"[4]; PA pHeps, high propiogenic media, static",−85.3±9.1%
same,12C-Acetyl-CoA Percent change (30 μM),[4]; [8],−27 ± 3.4%
same,CoASH Percent change (30 μM),[4]; [8],−48 ± 14.3%
same,13C-Propionyl-CoA (13C-P-CoA) % change at 30 μM,"[4]; PA pHeps, low propiogenic media, static",−76.4±12.6%
same,12C-Acetyl-CoA Percent change (30 μM),[4]; [9],−36.6 ± 13.5%
same,CoASH Percent change (30 μM),[4]; [9],−55.2 ± 7.1%
